One data set concerns the target T1, ASPH (Homo sapiens, UniProt Q12797).
T1 sequence (Q12797 1-758): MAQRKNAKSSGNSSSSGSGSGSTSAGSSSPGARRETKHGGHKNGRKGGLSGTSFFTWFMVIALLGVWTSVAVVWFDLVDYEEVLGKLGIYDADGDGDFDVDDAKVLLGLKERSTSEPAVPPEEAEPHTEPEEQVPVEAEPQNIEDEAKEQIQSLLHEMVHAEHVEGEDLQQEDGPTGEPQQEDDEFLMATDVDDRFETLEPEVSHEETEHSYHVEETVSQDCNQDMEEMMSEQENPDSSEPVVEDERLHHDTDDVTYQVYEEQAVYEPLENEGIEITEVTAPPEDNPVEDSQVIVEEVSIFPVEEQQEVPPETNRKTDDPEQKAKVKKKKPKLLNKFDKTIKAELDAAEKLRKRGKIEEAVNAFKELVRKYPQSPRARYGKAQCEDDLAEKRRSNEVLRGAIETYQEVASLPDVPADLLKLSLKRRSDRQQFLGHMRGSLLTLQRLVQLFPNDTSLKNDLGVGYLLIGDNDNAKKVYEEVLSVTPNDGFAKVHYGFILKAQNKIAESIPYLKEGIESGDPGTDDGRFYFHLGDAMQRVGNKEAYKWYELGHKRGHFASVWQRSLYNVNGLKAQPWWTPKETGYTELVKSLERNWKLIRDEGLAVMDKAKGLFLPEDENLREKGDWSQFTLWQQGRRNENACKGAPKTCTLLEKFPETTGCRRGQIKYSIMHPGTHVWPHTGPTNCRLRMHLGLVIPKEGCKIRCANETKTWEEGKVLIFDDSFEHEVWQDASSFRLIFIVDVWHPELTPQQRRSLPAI
In words: binding to ASPH by isothermal titration calorimetry. The source says:
In the second step arylhydroxytetronimide was sulfonylated with phenylmethansulfonyl chloride in dry tetrahydrofuran to yield compounds of formula 1 (shown below). Compounds were characterized by 1H and 13C nuclear magnetic resonance, high resolution mass spectroscopy, high performance liquid chromatography, infra-red spectroscopy, melting point, elemental analysis and binding to ASPH by isothermal titration calorimetry.
Candidate parent compounds were selected as inhibitors for β-hydroxylase activity based on crystal structure of the catalytic site in the C-terminal region of ASPH and computer assisted drug design.

For data set [1], the system named is HPAFH AsPC-1 human PC cell line. The data set can be described thus: subcutaneous pancreatic cancer tumor growth in nude mice. The class given is in vivo. On the procedure: FIG. 4A is a line graph showing tumor volume, and FIG. 4B is a bar graph showing tomor weight. […] There were 15 nude mice in each group. i.p. injection (20 mg/kg/mouse). Vertical bars; standard error.
The HPAFH AsPC-1 human PC cell line which expresses a high level of ASPH was implanted (5×10^6 cells s.c.) into the back of nude mice. Tumors were allowed to grow to approximately 100 mm^3 after one week, and MO-1-1100 was then administered intraperitoneal (i.p.) at a concentration of 50 mg/kg. The treatment regimen as shown in FIGS. 4A-B included i.p. injections on a daily basis for five days followed by every other day until the experiment was terminated due to the large size of tumors observed in the control group that received a DMSO vehicle injection. […] There were 15 nude mice in each group (control vs. treatment).

The test system of data set [2] is FOCUS cells. The data set can be described thus: MTT assay (cell proliferation, metabolic activity). The class given is cell-based, human. To be noted: 24 hours. On the procedure: (§1) A MTT assay was performed to evaluate the effect of MO-1-1100 on cell proliferation and viability. MTT is reduced to purple formazan in living cells. FOCUS cells were used as a high ASPH expressing human HCC cell line. […] The MTT assay measures cellular metabolic activity via NAD(P)H-dependent cellular oxidoreductase enzymes. […] In order to evaluate the effect of long-term exposure of MO-1-1100, the colony formation assay (an assay of malignant potential and phenotype) in which cells were treated with inhibitor for 3 weeks was performed.

Another data set deals with FOCUS. In words: cell viability. Conditions: 5 μM. The class given is cell-based, human. The method, then:
as §1

For another data set, the system named is Hep3B. The data set can be described thus: cell viability. It is filed as cell-based, human. Conditions: 5 μM.
The test system of the next data set is HepG2. The data set can be described thus: cell viability. It is filed as cell-based, human. Conditions: 5 μM.
For a further data set, the system named is NIH 3T3 cells. In words: cell viability. It is filed as cell-based, mouse. Conditions: 5 μM, NIH 3T3 cells with no expression of ASPH.
The test system of data set [3] is FOCUS cells. In words: anchorage independent growth in soft agar. To be noted: 3 weeks of culture. It is filed as cell-based, human. The method, then: The effect of MO-1-1100 on anchorage independent growth in soft agar was evaluated. The ability of forming colonosphere in soft agar is considered to be a rigid test for tumorigenic potential. ASPH expression results in cells acquiring the ability to form colonospheres in soft agar. […] In order to evaluate the effect of ASPH inhibitor for anchorage independent colony formation, FOCUS cells were incubated in soft agar with or without this ASPH enzymatic inhibitor. After 3 weeks incubation, MO-1-1100 reduced colonosphere formation of FOCUS cells (FIG. 9A). […] This assay is a standard method to monitor malignant growth that reflects the ability to form tumors that grow aggressively in vivo.

In data set [4] the test system is FOCUS cells. The data set can be described thus: directional motility, Boyden chamber-type culture inserts. The class given is cell-based, human. Conditions: 5 μM pretreatment for 24 hours, migration 30 min. The method, then:
(§2) The β-hydroxylase activity is required for ASPH to mediate its effects on cell motility. Directional motility was measured using Boyden chamber-type culture inserts equipped with porous membranes. FOCUS cells were pretreated with 5 μM of MO-1-1100 and MO-1-500 β-hydroxylase inhibitor for 24 hours, and then placed into the upper chamber. Migration was allowed to proceed for 30 min. ATPLite was used to quantify viable cell density. The cells in the upper well and upper surface of membrane reflects the number of non-migrating cells, luminescence measured at the bottom surface of the membrane reflects the number of migrating and non-adherent cells and luminescence measured in the bottom well was reflect migrating and non-adherent cells. […] Cell invasiveness was assessed by invasion assay using matrigel coated membrane, in which cells were allowed to proceed for 6 hours; those found adhered on the bottom surface of membrane were regarded as invading cells.

The test system of data set [5] is FOCUS cells. In words: invasion assay using matrigel coated membrane. It is filed as cell-based, human. To be noted: 6 hours, compared to DMSO control. The method, then: as §2

Molecules are shown by their SMILES. “Also recorded” adds a separate entry of the source.

As for `NC1=C(OS(=O)(=O)Cc2ccccc2)C(=O)C(c2ccc(Cl)cc2)O1` (racemic) [MO-1-1100], the ASPH binding result on ASPH is given as “confirmed to demonstrate ASPH binding”. Moreover, the “HPAFH tumor formation, growth rate” value in data set [1] (i.p. 50 mg/kg, daily for five days followed by every other day) was “substantial inhibition”. For the same compound, the “PC tumor growth (tumor volume, tumor weight)” value in [1] (i.p. injection (20 mg/kg/mouse), FIG. 4 legend) was “anti-tumor effect”. In addition, in the data set with FOCUS cells [2], the “OD (optical density) value, MTT” value is reported as “dose-dependently decreased”. Further, the “cell viability, inhibition rate” value with FOCUS amounted to 37.9%. Further, the “cell viability, inhibition rate” value in the data set on Hep3B is 60%. In addition, the “cell viability, inhibition rate” value with HepG2 worked out at 59%. Moreover, the decreased cell viability entry in the data set with NIH 3T3 cells is reported as “not”. In the data set on FOCUS cells [3], the “number and size of colonies in soft agar” value is “dose-dependent and highly significant reduction; also recorded: reduces”. For the same compound, in the data set with FOCUS cells [4], the “cell migration / motility” value is given as “significantly inhibited”; the “migrating and adherent cells” value is “significantly reduced”; the “population of non-adherent cells” value is recorded as “unchanged”; the total migrated cells result is reported as “reduced”. Besides, the invasiveness result in the data set on FOCUS cells [5] is listed as “significantly reduced; also recorded: significantly inhibited”.

These data come from patent US10106532B2, “Inhibitors of beta-hydroxylase for treatment of cancer” (MIDWESTERN UNIVERSITY, priority 2012, dated 2018).
